Laboratory results: patent US11840537B2, “Preparation and application of a 5-bromoquinazoline derivative” (Hefei University of Technology, priority 2020, dated 2023)
Where a name gives a salt, the structure may show the parent alone.

Tests used:
Format in all cases: cell-based
[1] = test system: leukemia HL-60; assay: Anti-cancer activity, leukemia HL-60 cells
[2] = test system: hepatoma carcinoma cell SMMC-7721; assay: Anti-cancer activity, hepatoma carcinoma cell SMMC-7721; conditions: liver cancer (SMMC-7721)
[3] = test system: colon cancer SW480; assay: Anti-cancer activity, colon cancer SW480 cells
[4] = test system: breast cancer cell MCF-7; assay: Anti-cancer activity, breast cancer cell MCF-7; conditions: breast cancer cells (MCF-7)

Measured: strong inhibitory activity (ED50)

COC(=O)C1(Nc2nc(=O)[nH]c3ccc(Br)cc23)c2cc(Br)ccc2NC12C(=O)Nc1ccc(Br)cc12 (stereo not shown) [compound (I), 3-[5, 5′-dibromo-3-((6-bromo-2-oxo-1,2-dihydroquinazoline-4-amino)-2′-oxo (2,3′-spirobisindole)]methyl formate]
< 10.0 µg/mL: all assays above
